# Test system: 945468-187-T-J3-PDC spheroids with HUVEC/MSC, viability
# Assay: Anticancer human tumor 945468-187-T-J3-PDC patient-derived rectal carcinoma cell line growth inhibition [PI3K]
# Details: for IC50: curve of first compound; for viability, T/C: stronger effect = lower value
# Text: Combinatorial screen of targeted agents with the PI3K inhibitors inavolisib, alpelisib, duvelisib, and copanlisib in multi-cell type tumor spheroids
# A high-throughput screen of multi-cell type tumor spheroids was designed to identify active combinations of targeted small molecules and PI3K pathway inhibitors. Complex spheroids include a stromal component modeled by human endothelial cells (HUVEC) and fibroblasts modeled by human mesenchymal stem cells (MSCs). The concentration ranges selected for each drug and investigational agent were based upon clinically achievable concentrations if the clinical Cmax of the agent was known.
# Compounds. The drugs and investigational agents: inavolisib (NSC800729), alpelisib (NSC765974), duvelisib (NSC772469), copanlisib (NSC816437), ipatasertib (NSC767898), afuresertib (NSC778305), talazoparib (NSC767125), sapanisertib (NSC764658), selumetinib (NSC741078), tovorafenib (DAY101, NSC766906), vemurafenib (NSC761431), ravoxertinib (NSC781343), sotorasib (NSC818433), MRTX1133 (NSC 836407), abemaciclib (NSC 768073), palbociclib (NSC758247), venetoclax (NSC 766270), SY5609 (NSC837396), enzalutamide (NSC755605), and darolutamide (NSC825331), were obtained from the National Cancer Institute (NCI) Developmental Therapeutics Program Chemical Repository. The FDA-approved anticancer drug set is available from the NCI Developmental Therapeutics Program. […] The stock solutions were prepared in dimethyl sulfoxide (DMSO, Sigma-Aldrich, St. Louis, MO, cat. D2650) at 800-fold the tested concentration and stored at -70 degrees C prior to their use. All drugs and investigational agents were tested over a range starting from a high concentration at or near the clinical Cmax and decreasing in half-log increments. If the clinical Cmax for an agent had not been determined, the highest concentration tested was 10 microM.
# Cell Culture. All cells were maintained in an incubator at 37 degrees C and 5% CO2 with 95% humidity. The PDC lines were cultured according to standard operating procedures established by the NCI PDMR (https://pdmr.cancer.gov/sops/default.htm). All PDCs were thawed and cultured in Matrigel-coated flasks prepared with a working solution of 1X Ham's F-12 nutrient mix, without supplementation (Invitrogen, Waltham, MA, cat. 11765054), 100 U/mL penicillin-streptomycin (Invitrogen, cat. 15140122), and 2.5% Matrigel (Corning Inc., Corning, NY, cat. 354248) for the first three passages. The 354836-022-R-J1-PDC, 475296-252-R-J1-PDC, and 997726-040-R-J2-PDC lines were cultured in 6A media, which includes advanced DMEM/F-12 (Thermo Fisher Scientific, cat. 12634028), 10 mM HEPES (Thermo Fisher Scientific, cat. 15630080), 1X GlutaMAX supplement (Thermo Fisher Scientific, cat. 35050061), 0.1 mg/mL primocin (InvivoGen, San Diego, CA, cat. ant-pm-2), 10% defined fetal bovine serum, heat inactivated (HyClone Laboratories Inc., Logan, UT, cat. SH30070.03HI), 50% L-WRN conditioned media (ATCC, cat. CRL-3276), 1.25 mM N-Acetyl-L-cysteine (Sigma-Aldrich, cat. A9165), 10 mM nicotinamide (Sigma-Aldrich, cat. N0636), 1X B-27 supplement (Thermo Fisher Scientific, cat. 17504044), 1X N-2 supplement (Thermo Fisher Scientific, cat. 17502048), and 10 microM Y-27632 dihydrochloride (Tocris Bioscience, Bristol, United Kingdom, cat. 1254). The 624824-186-R-J2-PDC line was cultured in 6C/Colon 1B media, which includes all 6A media components plus 50 ng/mL human EGF recombinant protein (Thermo Fisher Scientific, cat. PHG0311). […]
# [1] = second compound 0.00316 µM, first compound 0.0316 µM
# [2] = second compound 0.00316 µM, first compound 0.1 µM
# [3] = second compound 0.01 µM, first compound 0.0316 µM
# [4] = second compound 0.01 µM, first compound 0.1 µM
# [5] = second compound 0.0316 µM, first compound 0.0316 µM
# [6] = second compound 0.0316 µM, first compound 0.1 µM
# [7] = second compound 0.1 µM, first compound 0.0316 µM
# [8] = second compound 0.1 µM, first compound 0.1 µM
# [9] = second compound 0.316 µM, first compound 0.0316 µM
# [10] = second compound 0.316 µM, first compound 0.1 µM
# [11] = second compound 1 µM, first compound 0.0316 µM
# [12] = second compound 1 µM, first compound 0.1 µM
# [13] = second compound 0.00316 µM, first compound 0.316 µM
# [14] = second compound 0.00316 µM, first compound 1 µM
# [15] = second compound 0.00316 µM, first compound 3.16 µM
# [16] = second compound 0.00316 µM, first compound 10 µM
# [17] = second compound 0.01 µM, first compound 0.316 µM
# [18] = second compound 0.01 µM, first compound 1 µM
# [19] = second compound 0.01 µM, first compound 3.16 µM
# [20] = second compound 0.01 µM, first compound 10 µM
# [21] = second compound 0.0316 µM, first compound 0.316 µM
# [22] = second compound 0.0316 µM, first compound 1 µM
# [23] = second compound 0.0316 µM, first compound 3.16 µM
# [24] = second compound 0.0316 µM, first compound 10 µM
# [25] = second compound 0.1 µM, first compound 0.316 µM
# [26] = second compound 0.1 µM, first compound 1 µM
# [27] = second compound 0.1 µM, first compound 3.16 µM
# [28] = second compound 0.1 µM, first compound 10 µM
# [29] = second compound 0.316 µM, first compound 0.316 µM
# [30] = second compound 0.316 µM, first compound 1 µM
# [31] = second compound 0.316 µM, first compound 3.16 µM
# [32] = second compound 0.316 µM, first compound 10 µM
# [33] = second compound 1 µM, first compound 0.316 µM
# [34] = second compound 1 µM, first compound 1 µM
# [35] = second compound 1 µM, first compound 3.16 µM
# [36] = second compound 1 µM, first compound 10 µM
# 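Note: spheroids exposed to agents for 7 days before viability read.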
# 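Throughout, for viability, T/C: 100% = DMSO vehicle control viability.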
smiles,measurement,setting,value
CC(C)n1nc(-c2ccc3oc(N)nc3c2)c2c(N)ncnc21 + CC(Nc1ccc2c(c1)OCCn1cc(N3C(=O)OCC3C(F)F)nc1-2)C(N)=O,IC50,second compound 0.00316 µM,> 0.1 µM
same,IC50,second compound 0.01 µM,> 0.1 µM
same,IC50,second compound 0.0316 µM,0.0931 µM
same,IC50,second compound 0.1 µM,0.0738 µM
same,IC50,second compound 0.316 µM,0.0274 µM
same,IC50,second compound 1 µM,0.00519 µM
same,"viability, T/C","second compound 0.00316 µM, first compound 0.000316 µM",111%
same,"viability, T/C","second compound 0.00316 µM, first compound 0.001 µM",104%
same,"viability, T/C","second compound 0.00316 µM, first compound 0.00316 µM",109%
same,"viability, T/C","second compound 0.00316 µM, first compound 0.01 µM",116%
same,"viability, T/C",[1],118%
same,"viability, T/C",[2],71%
same,"viability, T/C","second compound 0.01 µM, first compound 0.000316 µM",102%
same,"viability, T/C","second compound 0.01 µM, first compound 0.001 µM",105%
same,"viability, T/C","second compound 0.01 µM, first compound 0.00316 µM",98.1%
same,"viability, T/C","second compound 0.01 µM, first compound 0.01 µM",111%
same,"viability, T/C",[3],123%
same,"viability, T/C",[4],63.4%
same,"viability, T/C","second compound 0.0316 µM, first compound 0.000316 µM",99.1%
same,"viability, T/C","second compound 0.0316 µM, first compound 0.001 µM",94.5%
same,"viability, T/C","second compound 0.0316 µM, first compound 0.00316 µM",129%
same,"viability, T/C","second compound 0.0316 µM, first compound 0.01 µM",110%
same,"viability, T/C",[5],114%
same,"viability, T/C",[6],46%
same,"viability, T/C","second compound 0.1 µM, first compound 0.000316 µM",102%
same,"viability, T/C","second compound 0.1 µM, first compound 0.001 µM",107%
same,"viability, T/C","second compound 0.1 µM, first compound 0.00316 µM",104%
same,"viability, T/C","second compound 0.1 µM, first compound 0.01 µM",126%
same,"viability, T/C",[7],87.2%
same,"viability, T/C",[8],36.7%
same,"viability, T/C","second compound 0.316 µM, first compound 0.000316 µM",103%
same,"viability, T/C","second compound 0.316 µM, first compound 0.001 µM",104%
same,"viability, T/C","second compound 0.316 µM, first compound 0.00316 µM",91%
same,"viability, T/C","second compound 0.316 µM, first compound 0.01 µM",77.8%
same,"viability, T/C",[9],45.2%
same,"viability, T/C",[10],24.9%
same,"viability, T/C","second compound 1 µM, first compound 0.000316 µM",65.7%
same,"viability, T/C","second compound 1 µM, first compound 0.001 µM",64.9%
same,"viability, T/C","second compound 1 µM, first compound 0.00316 µM",60.3%
same,"viability, T/C","second compound 1 µM, first compound 0.01 µM",36.3%
same,"viability, T/C",[11],34.9%
same,"viability, T/C",[12],29.8%
CC1(C)CCC(CN2CCN(c3ccc(C(=O)NS(=O)(=O)c4ccc(NCC5CCOCC5)c([N+](=O)[O-])c4)c(Oc4cnc5[nH]ccc5c4)c3)CC2)=C(c2ccc(Cl)cc2)C1 + CC(Nc1ccc2c(c1)OCCn1cc(N3C(=O)OCC3C(F)F)nc1-2)C(N)=O,IC50,second compound 0.00316 µM,> 10 µM
same,IC50,second compound 0.01 µM,> 10 µM
same,IC50,second compound 0.0316 µM,> 10 µM
same,IC50,second compound 0.1 µM,> 10 µM
same,IC50,second compound 0.316 µM,> 10 µM
same,IC50,second compound 1 µM,> 10 µM
same,"viability, T/C",[1],96.8%
same,"viability, T/C",[2],112%
same,"viability, T/C",[13],102%
same,"viability, T/C",[14],114%
same,"viability, T/C",[15],131%
same,"viability, T/C",[16],52.9%
same,"viability, T/C",[3],97.7%
same,"viability, T/C",[4],125%
same,"viability, T/C",[17],94%
same,"viability, T/C",[18],114%
same,"viability, T/C",[19],132%
same,"viability, T/C",[20],63.2%
same,"viability, T/C",[5],121%
same,"viability, T/C",[6],101%
same,"viability, T/C",[21],112%
same,"viability, T/C",[22],121%
same,"viability, T/C",[23],125%
same,"viability, T/C",[24],63.2%
same,"viability, T/C",[7],121%
same,"viability, T/C",[8],114%
same,"viability, T/C",[25],105%
same,"viability, T/C",[26],126%
same,"viability, T/C",[27],125%
same,"viability, T/C",[28],65.5%
same,"viability, T/C",[9],107%
same,"viability, T/C",[10],103%
same,"viability, T/C",[29],102%
same,"viability, T/C",[30],113%
same,"viability, T/C",[31],120%
same,"viability, T/C",[32],73.2%
same,"viability, T/C",[11],79.2%
same,"viability, T/C",[12],68%
same,"viability, T/C",[33],80%
same,"viability, T/C",[34],79.2%
same,"viability, T/C",[35],81.1%
same,"viability, T/C",[36],53.9%
C[C@@H](NC(=O)c1ncnc(N)c1Cl)c1ncc(C(=O)Nc2cc(C(F)(F)F)c(Cl)cn2)s1 + CC(Nc1ccc2c(c1)OCCn1cc(N3C(=O)OCC3C(F)F)nc1-2)C(N)=O,IC50,second compound 0.00316 µM,> 10 µM
same,IC50,second compound 0.01 µM,> 10 µM
same,IC50,second compound 0.0316 µM,> 10 µM
same,IC50,second compound 0.1 µM,> 10 µM
same,IC50,second compound 0.316 µM,> 10 µM
same,IC50,second compound 1 µM,> 10 µM
same,"viability, T/C",[1],97.2%
same,"viability, T/C",[2],97.5%
same,"viability, T/C",[13],116%
same,"viability, T/C",[14],91.5%
same,"viability, T/C",[15],111%
same,"viability, T/C",[16],92%
same,"viability, T/C",[3],94.7%
same,"viability, T/C",[4],110%
same,"viability, T/C",[17],101%
same,"viability, T/C",[18],88.4%
same,"viability, T/C",[19],90.8%
same,"viability, T/C",[20],98.4%
same,"viability, T/C",[5],94.4%
same,"viability, T/C",[6],89.3%
same,"viability, T/C",[21],94.4%
same,"viability, T/C",[22],95.1%
same,"viability, T/C",[23],103%
same,"viability, T/C",[24],94.3%
same,"viability, T/C",[7],91.2%
same,"viability, T/C",[8],102%
same,"viability, T/C",[25],101%
same,"viability, T/C",[26],100%
same,"viability, T/C",[27],96.7%
same,"viability, T/C",[28],95.8%
same,"viability, T/C",[9],109%
same,"viability, T/C",[10],112%
same,"viability, T/C",[29],92.7%
same,"viability, T/C",[30],92.7%
same,"viability, T/C",[31],88.8%
same,"viability, T/C",[32],96.3%
same,"viability, T/C",[11],67.5%
same,"viability, T/C",[12],56.1%
same,"viability, T/C",[33],63.7%
same,"viability, T/C",[34],56.8%
same,"viability, T/C",[35],65.1%
same,"viability, T/C",[36],62.4%
